Columns and labels:
[1] = test system: Phytophthora sojae; conditions: oomycete carrying encoding gene of mutated protein; cited from earlier work
[2] = test system: wide-type Phytophthora sojae; experiment: Growth on nourseothricin-containing V8 culture medium, control strain; assay type: cell-based; conditions: 50 μg/mL nourseothricin, grows on V8 medium without nourseothricin
Method: (§1) The 15 candidate transformants screened in Example 1 were transformed to the 50 μg/mL nourseothricin-containing V8 culture medium to observe the growth condition of the 15 candidate transformants, and the wide-type Phytophthora sojae is used as a control strain.

[3] = test system: Avh109 gene complemented transformants of Phytophthora sojae (Nat1 gene as selection marker); experiment: Growth on nourseothricin-containing V8 culture medium, candidate transformants carrying the Nat1 gene; assay type: cell-based; conditions: 50 μg/mL nourseothricin; 15 candidate transformants with Nat1 gene
Method: (S2) After the centrifugation, the supernatant was discarded. Then 5 mL of PM culture medium were added into the centrifuge tube to resuspend the regenerated hypha. After that, 5 mL of 30 μg/mL nourseothricin-containing PM culture medium were added into the centrifuge tube, and mixed to be poured into a petri dish. Then the petri dish was subjected to drying, and culturing at 25° C. in dark for 3-4 days to perform primary screening.
(S3) The growth condition of hyphae on the surface of the petri dish was observed. 10 mL of 50 μg/mL nourseothricin-containing V8 culture medium were added into the petri dish, and cultured at 25° C. in the dark for 3-4 days to perform secondary screening.
(S4) The growth condition of hyphae on the surface of the petri dish was observed. The regenerated strain was transferred to the 50 μg/mL nourseothricin-containing V8 culture medium to perform tertiary screening. After three screenings in the presence of nourseothricin, 15 transformants were obtained, which were preliminarily considered to be complemented transformants (candidate transformants) for subsequent identification.
as §1

Cc1cc(C(F)(F)F)nn1CC(=O)N1CCC(c2nc(C3=NOC(c4c(F)cccc4F)C3)cs2)CC1 (stereo not drawn) [oxathiapiprolin]
resistance to oxathiapiprolin induced in the oomycete by the mutated protein [1]: more than 500 times

nourseothricin
growth condition on nourseothricin-containing V8 medium [2]: not able to grow | growth condition on nourseothricin-containing V8 medium [3]: able to grow normally

From patent US20220170029A1, “APPLICATION OF NAT1 GENE AS SCREENING MARKER IN GENETIC TRANSFORMATION OF OOMYCETE” (priority 2021, published 2022)
